Measured values taken from patent US20170198027A1 (priority 2012, published 2017).
Entries after “also recorded” stand apart in the source; their conditions may differ. Where two headings read alike, the source gives them in different places.

How the values were obtained:
[1] = test system: New Zealand white rabbit fed with high fat diet; settings: for atherosclerosis Grade: individual animals, listed as APOAI
Method: The treatment groups were given APOAJ via auricular vein once a week Vehicle controls received normal saline via auricular vein once a week. […] The body weight of animal was determined every week and whole blood was drawn every three weeks. The study duration was 19 weeks. At the end of study, all animals were sacrificed. […] Male New Zealand white rabbits were used in this study. […] Blood samples were taken 12 hour after fasting before study to determine the blood lipid parameters. […] Ten to 14 rabbits were in one group. […] First dose was given 1 week before high fat diet. […] 5.2 blood lipid parameters: whole blood was drawn every three weeks. Animals were subject to 12 hour fast before taking blood. […] The upper layer of serum was then separated and examined for total cholesterol (TC), total triglyceride (TG), low density lipoprotein cholesterin (LDL-C), and high density lipoprotein cholesterin (HDL-C). Test reagents were purchased from Shanghai A: The atherosclerosis of aorta (plaque area lj) B: Liver index C: Aorta, liver, heart, arteria carotis, kidney All animals were anesthetized by 20 of ethyl carbamate and then sacrificed with air injection. Abdomen cavity was opened. Whole blood was taken from heart. Heart was harvested along with 7 em of aorta. Then other organs like liver, kidney and arteria carotis were harvested. […] Pictures were taken then. Aorta was cut from aortic arch, opened longitudinally and taken picture. […] One piece of this sample was fixed in fomlalin for further pathological analysis. The weight of liver was determined immediately. Two pieces of specimen were cut from hepatic lobe. One was kept in cryo-preservation tube for lipid analysis and another one was fixed in formalin for further pathological analysis. Animals were fast for 12 hours before taking blood samples via auricular vein. […] Test reagents were purchased from Shanghai Rong Sheng Bio-pharmaceutical Co. Ltd. The aorta was dissected and opened for 7.5 em from aortic arch longitudinally. Pictures were taken and atherosclerosis changing was analyzed.

[2] = test system: ApoE ko mice fed with high fat diet
Excerpt: 10 ApoE ko mice were fed with regular chow diet and used as negative control group. 50 ApoE ko mice were fed with high fat diet (35% kcal fat, 1% cholesterol) for 8 weeks, and then the plasma samples were collected for lipid profile measurement before the treatment. 50 ApoE ko mice were assigned into 5 groups based on the fasting overnight plasma TC and HDL level.
19 Mar. 2012 to 6 Apr. 2012: Group the mice based on the TC and HDL level and start the treatment with 3 doses of antibody APOA1 by i.p daily on the weekday (The first dose was administered by iv injection
13 Apr. 2012-14 May 2012: The treatment with antibody APOA1 was changed to i.p injection every two days (Monday, Wednesday, and Friday) per client's instruction.
Antibody products were administrated by intraperitoneal injection every two days (Monday, Wednesday, and Friday). and the positive compound was administered by p.o every day.
5.4. Body weight and blood glucose measurement: The body weight was weighed weekly during the period of treatment. The fasting overnight blood glucose was measured at the end of study by Roche glucometer.
5.5 24 h food intake measurement: 24 hours food intake for each cage was measured weekly
5.6. Plasma lipid profile measurement: About 300 ul of blood sample was collected from the orbital vein for each mouse and centrifuged at 7000 rpm for 5 min at 4° C. and the plasma lipid profile was measured by Roche Modular automatic biochemistry analyzer in DaAn Medical Laboratory
After RAAS antibody products treatment for 8 weeks, all mice were sacrificed. Measured body weight and collected blood sample for each mouse. Weighed liver weight and saved a tiny piece of liver into 4% paraformaldehyde (PFA) fixation solution for further analysis. At same time, take the photos with heart, lung, aortas and two kidneys.
Scanning the glasses slides with the Aperio ScanScope system and analyze with the image proplus software to measure the area of atherosclerotic plaque session. The results were expressed as the percentage of the total aortic surface area covered by lesions. The operation procedure of software was briefly described as follow: Converted the sys version photos into JPG version, then calibrated it and subsequently selected the red regions and then calculate the total area automatically by image proplus software.
The results were expressed as the Mean±SEM and statistically evaluated by student's t-test.

[3] = test system: Apo E(-/-) mice fed with HFD/High Cholesterol diet; test: lipid profile and atherosclerosis plaque in 18 ApoE mice, 4 weeks study; type: in vivo, mouse
Method: [table] […] Before HFD; 4 week: […] After 4 weeks treatment Oil Red staining procedure: • Sacrificed the mice and heart, aorta, and arteries were dissected under the dissecting microscope. […] Stain with freshly prepared Oil Red 0 working solution 10 mins. Image analysis procedure: • The unfolded vascular inner wall “Were scanned with Aperio ScanScope system and the area of atherosclerotic plaque was measured by Image-Proplus software after oil red 0 staining as follow picture shown. We measured the sum lesion areas and mean density using ipp software and calculated atherosclerotic percent. Area percent (%)” Sum area of atherosclerotic plaque (mm2) I whole area of vascular inner wall

[4] = low dose group vs vehicle control
[5] = medium group vs vehicle control

With “human Apoiipoprotein AI, injection [APOA1]” the “Lipid content in aorta: HDL-C” value ([1]; High dose) was 0.111, the “Lipid content in aorta: LDL-C” value ([1]; High dose) was 0.318 and the “Lipid content in aorta: TC” value ([1]; High dose) was 0.29. The “Lipid content in aorta: TG” value ([1]; High dose) was 0.402, the “Lipid content in liver: HDL-C” value ([1]; High dose) was 0.825 ± 0.129 and the “Lipid content in liver: LDL-C” value ([1]; High dose) was 2.302 ± 0.054. For the same substance, the “Lipid content in liver: TC” value ([1]; High dose) was 2.841 ± 0.298, the “Lipid content in liver: TG” value ([1]; High dose) was 1.3 ± 0.171 and the Liver index ([1]; High dose (n = 8)) was 4.257 ± 0.482%. For the same substance, the Liver weight ([1]; High dose (n = 8)) was 151.69 ± 18.49 g, the “Lipid content in aorta: HDL-C” value ([1]; Low dose) was 0.092 and the “Lipid content in aorta: LDL-C” value ([1]; Low dose) was 0.254. For the same substance, the “Lipid content in aorta: TC” value ([1]; Low dose) was 0.28, the “Lipid content in aorta: TG” value ([1]; Low dose) was 0.337 and the “Lipid content in liver: HDL-C” value ([1]; Low dose) was 0.803 ± 0.236. The “Lipid content in liver: TC” value ([1]; Low dose) was 2.95 ± 0.809, the “Lipid content in liver: TG” value ([1]; Low dose) was 1.369 ± 0.251 and the Liver index ([1]; Low dose (n = 12)) was 3.886 ± 0.489%. For the same substance, the Liver weight ([1]; Low dose (n = 12)) was 128.096 ± 20.43 g, the Liver index ([1]; Medium dose (n = 9)) was 3.708−.−i−:( ).391% and the Liver weight ([1]; Medium dose (n = 9)) was 112.006− −+ .−25.79 g. For the same substance, the “Lipid content in aorta: HDL-C” value ([1]; Middle dose) was 0.128, the “Lipid content in aorta: LDL-C” value ([1]; Middle dose) was 0.307 and the “Lipid content in aorta: TC” value ([1]; Middle dose) was 0.332. For the same substance, the “Lipid content in aorta: TG” value ([1]; Middle dose) was 0.388, the “Lipid content in liver: HDL-C” value ([1]; Middle dose) was 0.815 ± 0.249 and the “Lipid content in liver: LDL-C” value ([1]; Middle dose) was 1.407 ± 0.418. For the same substance, the “Lipid content in liver: TC” value ([1]; Middle dose) was 2,214 ± 0.515, the “Lipid content in liver: TG” value ([1]; Middle dose) was 1.081 ± 0.31 and the blood lipid parameters ([1]; given along with high fat diet) was “no significant decrease in blood lipid parameters”. The “TG, lipid content in liver” value ([1]; high dose group vs vehicle control) was “significantly lower”, the “atherosclerosis Grade” value ([1]; high dose group) was “IV (Grade IV was greater than 75%)” and the “pathological change of aorta” value ([1]; low dose group) was “no significant improvement”. For the same substance, the “TG, lipid content in liver” value [1, 4] was “significantly lower”, the “cellular swelling in liver” value [1, 4] was “same” and the “fat degeneration in liver” value [1, 4] was “better”. For the same substance, the “atherosclerosis Grade” value ([1]; low dose group) was “I (grade I was less than 25 ?-)); also recorded: IV (Grade IV was greater than 75%)”, the “atherosclerosis Grade” value ([1]; medium dose group) was “I (grade I was less than 25 ?-))” and the area of atherosclerosis ([1]; medium group (40 mg/kg) vs vehicle control) was “significant less”. The “LDL-C, lipid content in liver” value [1, 5] was “significantly lower”, the “TC, lipid content in liver” value [1, 5] was “significantly lower” and the “TG, lipid content in liver” value [1, 5] was “significantly lower”. The “cellular swelling and fat degeneration in liver” value [1, 5] was “better”, the “pathological change of aorta (endothelium swelling, smooth muscle migrating, foam cell formation)” value [1, 5] was “better” and the “Body weight Wk 19” value ([1]; rabbit, in vivo) was 3.19-.-i-:( ).278 kg. The “atherosclerosis change in Arteria carotis” value ([1]; rabbit, in vivo) was “no atherosclerosis change found”, the “calcification, pathological examination” value ([1]; rabbit, in vivo) was “no calcification found” and the “kidney Pathological change” value ([1]; rabbit, in vivo) was “-”. For the same substance, the “pathological change in heart and kidney” value ([1]; rabbit, in vivo) was “no pathological change found”, the “high density lipoprotein cholesterin (HDL-C) Wk 19” value ([1]; serum, High dose (n = 8)) was 4.993 · −+ :2.018 mmol/L and the “ligh density lipoprotein cholesterin (LDL-C) Wk 0” value ([1]; serum, High dose (n = 8)) was 0.92 ± 0.324 mmol/L. For the same substance, the “ligh density lipoprotein cholesterin (LDL-C) Wk 19” value ([1]; serum, High dose (n = 8)) was 14.1 ± 4.188 mmol/L, the “total cholesterol (TC) Wk 0” value ([1]; serum, High dose (n = 8)) was 1.59 .t-J}.48 mmol/L and the “total cholesterol (TC) Wk 19” value ([1]; serum, High dose (n = 8)) was 12.49 -t-2.81 mmol/L. The “high density lipoprotein cholesterin (HDL-C) Wk 0” value ([1]; serum, Low dose (n = 12)) was 0.705 ± 0.246 mmol/L, the “high density lipoprotein cholesterin (HDL-C) Wk 19” value ([1]; serum, Low dose (n = 12)) was 3.744 ± 2.14 mmol/L and the “ligh density lipoprotein cholesterin (LDL-C) Wk 0” value ([1]; serum, Low dose (n = 12)) was 0.826 ± 0.279 mmol/L. For the same substance, the “ligh density lipoprotein cholesterin (LDL-C) Wk 19” value ([1]; serum, Low dose (n = 12)) was 7.298 ± 4.60 mmol/L, the “total cholesterol (TC) Wk 0” value ([1]; serum, Low dose (n = 12)) was 1.06.-i-:0.27 mmol/L and the “total cholesterol (TC) Wk 19” value ([1]; serum, Low dose (n = 12)) was 9.07-.+:4.92 mmol/L. For the same substance, the “total triglyceride (TG) Wk 0” value ([1]; serum, Low dose (n = 12)) was 0.786 ± 0.229 mmol/L, the “total triglyceride (TG) Wk 19” value ([1]; serum, Low dose (n = 12)) was 1.267 ± 0.772 mmol/L and the “high density lipoprotein cholesterin (HDL-C) Wk 0” value ([1]; serum, Medium dose (n = 9)) was 0.67 ± 0.207 mmol/L. The “high density lipoprotein cholesterin (HDL-C) Wk 19” value ([1]; serum, Medium dose (n = 9)) was 4.343 ± 2.439 mmol/L, the “ligh density lipoprotein cholesterin (LDL-C) Wk 19” value ([1]; serum, Medium dose (n = 9)) was 6.357 ± 4.475 mmol/L and the “total cholesterol (TC) Wk 0” value ([1]; serum, Medium dose (n = 9)) was 1.77 ± 0.783 mmol/L. For the same substance, the “total cholesterol (TC) Wk 19” value ([1]; serum, Medium dose (n = 9)) was 10.28 ± 5.82 mmol/L, the “total triglyceride (TG) Wk 0” value ([1]; serum, Medium dose (n = 9)) was 0.656 ± 0.19 J·mmol/L and the HDL-C ([1]; serum, all treatment groups vs vehicle control) was “significantly high”. For the same substance, the dose escalation effect ([1]; three treatment groups, anatomic, pathological and biochemistry examination) was “no dose escalation effect”, the Liver index ([1]; treatment group vs vehicle) was “lower in treatment group, but there's no statistical difference found” and the “lipid content in aorta” value ([1]; treatment groups vs vehicle control) was “lower in treatment groups than that in vehicle control but there was no statistical significance”. For the same substance, the “arteriosclerosis plaque lesion in the region of thoracic aorta (root plaque area)” value ([2]; APOA1 mid dose and low dose, not significant vs vehicle) was “trend of reducing the arteriosclerosis plaque lesion”, the “plasma total cholesterol (TC)” value ([2]; after 8 week treatment, APOA1 low dose) was “significantly lower total cholesterol level” and the “plasma TG level” value ([2]; after 8 weeks treatment) was “no effect”. For the same substance, the “fasting overnight blood glucose” value ([2]; after 8 weeks treatment vs vehicle) was “no effect”, the “ratio of liver weight/body weight” value ([2]; after 8 weeks treatment vs vehicle, RAAS antibody low dose, atorvastatin 20 mg/kg) was “reduced the ratio of liver weight/body weight significantly” and the “atherosclerosis plaque lesion area of aorta” value ([2]; after 8 weeks treatment, APOA1 low dose) was “trend on reducing the plaque lesion area”. The “deaths in the treatment groups” value ([2]; after 15 doses treatment) was “several mice died”, the “atherosclerosis plaque lesion from the aortic root to right renal artery” value ([2]; atorvastatin p=0.08) was “trend of reducing the atherosclerosis plaque lesion in a dose dependent manner” and the “plasma HDL” value ([2]; low dose, after 4 weeks treatment) was “significantly decrease the HDL level”. For the same substance, the body weight ([2]; vs vehicle group, atorvastatin after 5 weeks treatment) was “trend on reducing body weight but didn't reach statistic difference”, the “blood plasma lipid profile” value ([3]; after 5 weeks treatment, 0.2 ml iv/ip) was “didn't improve the lipid profile” and the atherosclerotic plaques/lesions ([3]; vs vehicle group after 14 dosing) was “trend on reducing the atherosclerotic plaques/lesions”.
